Reference: patent US5116985A, “Isoquinoline derivatives and salts thereof” (priority 1989, dated 1992)
Counter-ions that a name gives are not always drawn.

Key:
trypsin [1] = target: T1, trypsin (Bos taurus, UniProt P00760); test: Inhibition of trypsin hydrolysis of TAME (p-tosylarginine methyl ester), in vitro; format: biochemical; conditions: TAME substrate, 1.5 μg of trypsin, 37° C., 10 minutes; read-out: 50% inhibitory concentration, substrate TAME
T1 sequence (P00760 24-246): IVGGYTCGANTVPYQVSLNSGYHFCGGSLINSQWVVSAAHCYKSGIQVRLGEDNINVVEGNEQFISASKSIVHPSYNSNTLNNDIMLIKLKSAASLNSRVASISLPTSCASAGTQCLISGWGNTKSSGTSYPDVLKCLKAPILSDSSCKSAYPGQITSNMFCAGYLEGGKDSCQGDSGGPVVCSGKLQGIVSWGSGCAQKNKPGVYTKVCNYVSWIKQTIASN
Procedure: (§1) The inhibitory activity on trypsin in vitro was determined by the methods of Muramatsu, et al. described in the Journal of Biochemistry, 58, 214 (1965).

trypsin [2] = target: T1, trypsin; test: Inhibition of trypsin hydrolysis of casein, in vitro; format: biochemical; conditions: casein substrate, 20 μg of trypsin, 37° C., 10 minutes; read-out: 50% inhibitory concentration, substrate casein
Procedure: as §1

| IC50 (trypsin [1]) [nM] | IC50 (trypsin [2]) [nM] | Compound |
| --- | --- | --- |
| 340 | 410 | N=C(N)Nc1ccc(C(=O)Oc2cccc3c(C(=O)OCc4ccccc4)nccc23)cc1 [Compound No. 11, 1'-Benzyloxycarbonyl-5'-isoquinolyl 4-guanidinobenzoate hydrochloride monohydrate] |
| 65 | 140 | CN(C)C(=O)COC(=O)Cc1ccc(OC(=O)c2ccc(NC(=N)N)cc2)cc1 [Camostat mesylate, N,N-Dimethylcarbamoylmethyl -p-( -p-guanidinobenzoyloxy)phenylacetate methanesulfonate, reference compound] |
| 56 | 130 | N=C(N)Nc1ccc(C(=O)Oc2cccc3cnccc23)cc1 [Compound No. 1, 5-Isoquinolyl 4-guanidinobenzoate dimethanesulfonate monohydrate] |
| 66 | 140 | CN(C)C(=O)COC(=O)c1nccc2c(OC(=O)c3ccc(NC(=N)N)cc3)cccc12 [Compound No. 12, 1'-(N,N-Dimethylcarbamoyl)methoxycarbonyl-5'-isoquinolyl 4-guanidinobenzoate hydrochloride] |
| 64 | 170 | N=C(N)Nc1ccc(C(=O)Oc2cccc3c(C(=O)O)nccc23)cc1 [Compound No. 5, 1'-Carboxy-5'-isoquinolyl 4-guanidinobenzoate quarterhydrate] |
| 56 | 160 | N=C(N)Nc1ccc(C(=O)Oc2cccc3c(C(N)=O)nccc23)cc1 [Compound No. 6, 1'-Carbamoyl-5'-isoquinolyl 4-guanidinobenzoate methanesulfonate hemihydrate] |
| 57 | 140 | CC(=O)c1nccc2c(OC(=O)c3ccc(NC(=N)N)cc3)cccc12 [Compound No. 4, 1'-Acetyl-5'-isoquinolyl 4-guanidinobenzoate hydrochloride] |
| 15000 | 2200 | CCOC(=O)c1ccc(OC(=O)CCCCCNC(=N)N)cc1 [Gabexate mesylate, Ethyl 4-(6-guanidinohexanoyloxy)benzoate methanesulfonate, reference compound] |
| 56 | 120 | CCOC(=O)c1nccc2c(OC(=O)c3ccc(NC(=N)N)cc3)cccc12 [Compound No. 7, 1'-Ethoxycarbonyl-5'-isoquinolyl 4-guanidinobenzoate hydrochloride] |
| 130 | 160 | CC(C)OC(=O)c1nccc2c(OC(=O)c3ccc(NC(=N)N)cc3)cccc12 [Compound No. 9, 1'-Isopropoxycarbonyl-5'-isoquinolyl 4-guanidinobenzoate hydrochloride] |
| 96 | 160 | CCCOC(=O)c1nccc2c(OC(=O)c3ccc(NC(=N)N)cc3)cccc12 [Compound No. 8, 1'-Propoxycarbonyl-5'-isoquinolyl 4-guanidinobenzoate methanesulfonate] |
| 64 | 140 | N=C(N)Nc1ccc(C(=O)Oc2cccc3c(O)nccc23)cc1 [Compound No. 2, 1'-Hydroxy-5'-isoquinolyl 4-guanidinobenzoate methanesulfonate] |
| 56 | 140 | N#Cc1nccc2c(OC(=O)c3ccc(NC(=N)N)cc3)cccc12 [Compound No. 3, 1'-Cyano-5'-isoquinolyl 4-guanidinobenzoate methanesulfonate monohydrate] |

| Compound | IC50 (trypsin [1]) [nM] | IC50 (trypsin [2]) [nM] |
| --- | --- | --- |
| CCCCOC(=O)c1nccc2c(OC(=O)c3ccc(NC(=N)N)cc3)cccc12 [Compound No. 10, 1'-Butoxycarbonyl-5'-isoquinolyl 4-guanidinobenzoate hydrochloride monohydrate] | 150 | 210 |
